Assay results taken from article PMC8467577, “Infection Responsive Smart Delivery of Antibiotics Using Recombinant Spider Silk Nanospheres” (Pharmaceutics, 2021).
Peptide text beside a SMILES is read from it.

Experiments:
[1] = Exposure to human serum (HPLC); type: in vitro ADME
Description: Frequent and inappropriate usage of antibiotics has changed the natural evolution of bacteria by reducing susceptibility and increasing resistance towards antibacterial agents. New resistance mechanisms evolved in the response to host defenses and pharmaceutical interventions are threatening our ability to treat common infections, resulting in increased mortality. In the face of this rising epidemic, antibiotic drug discovery, which has long been overlooked by big pharma, is reaching a critical low. Thus, the development of an infection-responsive drug delivery system, which may mitigate multidrug resistance and preserve the lifetime of our current antibiotic arsenal, has garnered the attention of both popular science and funding agencies. The present work describes the development of a thrombin-sensitive linker embedded into a recombinant spider silk copolymer to create a nanosphere drug delivery vehicle. […] A thrombin sensitive peptide (TSP) was synthesized, and the thrombin cleavage sensitivity was determined by HPLC. […] Subsequently, the peptide was coupled with a silk copolymer via EDC-NHS chemistry and formulated into nanospheres encapsulating antibiotic vancomycin. These nanospheres were evaluated for in vitro infection-responsive drug release and antimicrobial activity. Finally, the drug responsive nanospheres were assessed for efficacy in an in vivo septic arthritis model. […]

[2] = system: bacterial thrombin-like enzyme (media from an actively growing S. aureus culture); assay: Susceptibility to spent S. aureus culture media (HPLC); details: for degradation of silk protein in S. aureus bacterial media: 48 h, different concentrations of spent bacterial media vs control without media, 37 °C, HPLC area under the curve
Description: (§1) The thrombin-sensitive peptide, […] (TSP), was custom synthesized by standard Fmoc synthesis (WatsonBio, Houston, TX, USA). The susceptibility of the peptide to the bacterial thrombin-like enzyme was assessed by exposing the peptide to media from an actively growing S. aureus culture. Enzymatic activity of the media was initially determined by titrating culture exudate into a fluorogenic thrombin substrate, Boc-Val-Pro-Arg-MCA (Sigma Aldrich, St. Louis, MO, USA). TSP was then exposed to the media with varying enzymatic activity and incubated at 37 °C with shaking. The sample was analyzed with HPLC (mobile phase 0.1% TFA/water (A) 0.1% TFA/Acetonitrile (B), under a gradient flow of 5–90% at a flow rate of 1.0 mL/min) every 12 h through 48 h. Protein was detected at a wavelength of 215 nm. A similar experiment was conducted with the recombinant spider silk to check the susceptibility of the silk protein to the bacterial enzyme.

[3] = water control, HPLC
Description: as §1
(§2) The susceptibility of the TSP to the bacterial thrombin-like enzyme was assessed by exposing the peptide to media from an actively growing S. aureus culture. Enzymatic activity of the bacterial culture was determined by a fluorogenic thrombin substrate, Boc-Val-Pro-Arg-MCA. TSP was initially titrated into media with varying enzymatic activity to determine the amount of enzyme required to cleave the peptide.

human thrombin = human thrombin (Homo sapiens, UniProt P00734)
Description: as §1, §2

[4] = system: S. aureus infected knee joint; assay: In vivo septic arthritis model, H&E histopathology of knee joint; set-up: species or system Sprague Dawley rats; details: H&E staining, 48 h after local treatment
Description: After establishing the septic arthritis disease model, treatment with either free drug, drug-loaded conjugate particles, or drug-loaded silk particles was given on day two after bacterial inoculation. Rats were divided into three treatment groups (Table 1). The first group received drug-loaded (14 mg/kg) conjugate nanoparticles in the infected knee locally delivered into the synovial joint space while the uninfected knee was injected with unloaded conjugate nanoparticles. The second group received drug-loaded plain silk SX2 particles into the infected knee while the uninfected knee was injected with unloaded SX2 particles. The third group received a free drug into the infected knee joint and sterile PBS into the uninfected knee. The treatment was continued for 48 h after which rats were euthanized and limbs were collected for histopathological analysis. Before euthanasia, synovial fluid was collected from the joint space of the infected knee and the control knee of all the groups and cultured on LB agar plates overnight. After incubation overnight, the number of colonies were counted.
Histopathology was performed on the infected and uninfected bones by hematoxylin and eosin (H and E) stain. Initially the bones were harvested from the rat after euthanasia and fixed in 10% neutral buffered formalin for 72 h. […]

S. aureus = details: standard ZOI values of the free drug for SA; ref not given; cited from earlier work
Description: To explore the potential efficacy of this delivery system for the treatment of S. aureus septic arthritis, the antibacterial effect of Vancomycin-loaded nanospheres was first tested in vitro on Staphylococcus aureus. […] Once the MIC was established, antibacterial activity was tested by a Kirby Bauer Zone of Inhibition assay.

[5] = Critical aggregation concentration by pyrene fluorescence; type: physicochemical; details: pyrene fluorescence I1/I3 (379/393 nm), phosphate buffer, sonicated 5 min, incubated 1 h
Description: The critical aggregation concentration (CAC) of silk was determined by the pyrene fluorescence method. Briefly, 20 µL of 24 µg/mL (working concentration) of a pyrene solution was prepared in acetone and acetone was evaporated. Later, 980 µL of silk peptide in the phosphate buffer at different concentrations was then added to the pyrene, and the mixture was sonicated for 5 min and incubated for 1 h. The fluorescence spectra of the samples were recorded at an excitation of 336 nm and emission of 360–450 nm wavelengths. Intensity peaks at 379 nm (I1) and 393 nm (I3) were recorded. The ratio of I1/I3 was plotted against log concentration, and the point where a sharp inclination in the graph was noted as the CAC.

thrombin = details: releasing gentamicin linked to a polyvinyl alcohol (PVA) support matrix; cited from earlier work
Description: Strategies utilizing microenvironments unique to tissues and disease states as a molecular cue to activate drug release has gained widespread attention in the treatment of various diseases like cancer, diabetes, and bacterial infections as it increases drug stability and therapeutic efficacy while decreasing toxic side effects at the same time. Several enzymes including a thrombin-like enzyme in S. aureus, myeloperoxidase in Candida, and esterases in uropathogens were reported to be elevated during infection, whereas virulence factors for certain bacteria like b ...

## C[C@H](NC(=O)[C@@H]1CCCN1C(=O)[C@H](Cc1ccccc1)NC(=O)CNC(=O)[C@H](CCCNC(=N)N)NC(=O)[C@@H]1CCCN1C(=O)[C@H](CC(=O)O)NC(=O)[C@H](Cc1ccccc1)NC(=O)CNC(=O)[C@H](CCCCN)NC(=O)[C@H](CC(=O)O)NC(=O)[C@H](CC(=O)O)NC(=O)[C@H](CC(=O)O)NC(=O)[C@H](CC(=O)O)NC(=O)[C@H](Cc1c[nH]cn1)NC(=O)[C@H](Cc1c[nH]cn1)NC(=O)[C@H](Cc1c[nH]cn1)NC(=O)[C@H](Cc1c[nH]cn1)NC(=O)[C@H](Cc1c[nH]cn1)NC(=O)[C@@H](N)Cc1c[nH]cn1)C(=O)NCC(=O)NCC(=O)O [TSP] (H-HHHHHHDDDDKGFDPRGFPAGG-OH)
[1]
  cleavage on exposure to human serum: no cleavage
[2]; S. aureus exudate, HPLC
  cleavage on incubation with S. aureus exudate: cleaved
[2]; media from actively growing S. aureus culture, enzymatic activity 23 a.u., 37 °C with shaking, HPLC 215 nm every 12 h through 48 h
  time to cleavage of the peptide in S. aureus bacterial media: ≤ 12 h
[3]; 24 h exposure, n = 3
  stability in water after 24 h: intact
[3]; data not shown
  stability in water: still intact
Human thrombin
  degradation in human thrombin after 48 h: minimal degradation
  stability to human thrombin: still intact
  stability to human thrombin after 24 h: intact

## CN[C@H](CC(C)C)C(=O)N[C@H]1C(=O)N[C@@H](CC(N)=O)C(=O)N[C@H]2C(=O)N[C@H]3C(=O)N[C@H](C(=O)N[C@H](C(=O)O)c4cc(O)cc(O)c4-c4cc3ccc4O)[C@H](O)c3ccc(c(Cl)c3)Oc3cc2cc(c3O[C@@H]2O[C@H](CO)[C@@H](O)[C@H](O)[C@H]2O[C@H]2C[C@](C)(N)[C@H](O)[C@H](C)O2)Oc2ccc(cc2Cl)[C@H]1O [vancomycin-free drug, vancomycin]
[4]
  histopathological findings in infected joint: similar, if not more inflamed, appearance
S. aureus
  standard ZOI value: > 12 mm

## (GGYGPGQQGPGGYGPGQQGPSGPGSAAAAAAAA)2 [silk, recombinant MaSp2 spider silk protein, two consensus repeats, six histidine tag and enterokinase site, expressed in E. coli]
[2]; listed as silk peptide
  degradation of silk protein in S. aureus bacterial media: stability of the peptide even after 48 h
[2]; listed as silk protein
  degradation of silk protein in S. aureus bacterial media: no significant difference in the degradation
[5]
  critical aggregation concentration (CAC): 1.2 mg/mL

## GFDPRGFPAGG
thrombin
  time to complete cleavage: ≤ 15 min
